The test concerns the target T1, human RORgT (Homo sapiens, UniProt P51449).
T1 construct: expressed in transfected cells
T1 sequence (P51449 267-516): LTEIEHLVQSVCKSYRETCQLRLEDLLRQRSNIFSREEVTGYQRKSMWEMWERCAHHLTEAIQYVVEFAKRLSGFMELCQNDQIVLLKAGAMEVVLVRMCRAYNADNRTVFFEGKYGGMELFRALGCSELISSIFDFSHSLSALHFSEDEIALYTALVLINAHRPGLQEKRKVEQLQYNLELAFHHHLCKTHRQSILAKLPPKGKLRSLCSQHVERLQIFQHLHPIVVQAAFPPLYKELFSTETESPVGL
Description: RORgT Gal4 Luciferase Reporter Gene Assay. In kind it is cell-based. The note with it: engineered Jurkat cells overexpressing RORgT (LBD or full length) fused with Gal4 Luc reporter; 18 hours at 37° C.; luminescence. Put shortly: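 Jurkat cells expressing Gal4 Luc with either RORgT LBD (aa267-516) or full-length human RORgT, 10,000 cells/well, treated with compound (40 µM to 0.67 nM final, 3-fold dilutions) for 18 h at 37° C. Steady-Glo luminescence read; inhibition of constitutive activity as % signal-window reduction relative to a control compound.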

In turn, `CS(=O)(=O)CC(=O)N1CC[C@@]2(S(=O)(=O)c3ccccc3)c3ccc(OCc4c(Cl)cccc4Cl)cc3CC[C@@H]12` [Example 69, 1-[(3aR,9bR)-9b-(benzenesulfonyl)-7-[(2,6-dichlorophenyl)methoxy]-1H,2H,3H,3aH,4H,5H,9bH-benzo[e]indol-3-yl]-2-methanesulfonylethan-1-one] gave an EC50 of 17 nM.

`NC(=O)CN1CC[C@@]2(S(=O)(=O)c3ccccc3)c3ccc(OCc4c(Cl)cccc4Cl)cc3CC[C@@H]12` [Example 70, 2-[(3aR,9bR)-9b-(benzenesulfonyl)-7-[(2,6-dichlorophenyl)methoxy]-1H,2H,3H,3aH,4H,5H,9bH-benzo[e]indol-3-yl]acetamide] yielded an EC50 of 153 nM.

With `O=C1CCCN1CCN1CC[C@@]2(S(=O)(=O)c3ccccc3)c3ccc(OCc4c(Cl)cccc4Cl)cc3CC[C@@H]12` [Example 71, 1-{2-[(3aR,9bR)-9b-(benzenesulfonyl)-7-[(2,6-dichlorophenyl)methoxy]-1H,2H,3H,3aH,4H,5H,9bH-benzo[e]indol-3-yl]ethyl}pyrrolidin-2-one], the EC50 amounted to 667 nM.

Take `CC(C)(O)C(=O)N1CC[C@@]2(S(=O)(=O)c3ccccc3)c3ccc(OCc4c(Cl)cccc4Cl)cc3CC[C@@H]12` [Example 72, 1-[(3aR,9bR)-9b-(benzenesulfonyl)-7-[(2,6-dichlorophenyl)methoxy]-1H,2H,3H,3aH,4H,5H,9bH-benzo[e]indol-3-yl]-2-hydroxy-2-methylpropan-1-one]: the EC50 was 199 nM.

The compound `CCOC(=O)CNC(=O)N1CC[C@@]2(S(=O)(=O)c3ccccc3)c3ccc(OCc4c(Cl)cccc4Cl)cc3CC[C@@H]12` [Example 73, ethyl 2-{[(3aR,9bR)-9b-(benzenesulfonyl)-7-[(2,6-dichlorophenyl)methoxy]-1H,2H,3H,3aH,4H,5H,9bH-benzo[e]indole-3-carbonyl]amino}acetate] displayed an EC50 of 314 nM.

In the case of `O=C(CN1CCS(=O)(=O)CC1)N1CC[C@@]2(S(=O)(=O)c3ccccc3)c3ccc(OCc4c(Cl)cccc4Cl)cc3CC[C@@H]12` [Example 74, 4-{2-[(3aR,9bR)-9b-(benzenesulfonyl)-7-[(2,6-dichlorophenyl)methoxy]-1H,2H,3H,3aH,4H,5H,9bH-benzo[e]indol-3-yl]-2-oxoethyl}-1λ^6-thiomorpholine-1,1-dione], the EC50 stood at 14 nM.

Consider `CS(=O)(=O)N1CC[C@@]2(S(=O)(=O)c3ccccc3)c3ccc(OCc4c(Cl)cccc4Cl)cc3CC[C@@H]12` [Example 75, (3aR,9bR)-9b-(benzenesulfonyl)-7-[(2,6-dichlorophenyl)methoxy]-3-methanesulfonyl-1H,2H,3H,3aH,4H,5H,9bH-benzo[e]indole], for which the EC50 stood at 212 nM.

Consider `O=C1CCCN1CCC(=O)N1CC[C@@]2(S(=O)(=O)c3ccccc3)c3ccc(OCc4c(Cl)cccc4Cl)cc3CC[C@@H]12` [Example 76, 1-{3-[(3aR,9bR)-9b-(benzenesulfonyl)-7-[(2,6-dichlorophenyl)methoxy]-1H,2H,3H,3aH,4H,5H,9bH-benzo[e]indol-3-yl]-3-oxopropyl}pyrrolidin-2-one], for which a half-maximal response (EC50) required 957 nM.

Compound `CN1CC(C(=O)N2CC[C@@]3(S(=O)(=O)c4ccccc4)c4ccc(OCc5c(Cl)cccc5Cl)cc4CC[C@@H]23)CC1=O` (stereo partly drawn) [Example 77, 4-[(3aR,9bR)-9b-(benzenesulfonyl)-7-[(2,6-dichlorophenyl)methoxy]-1H,2H,3H,3aH,4H,5H,9bH-benzo[e]indole-3-carbonyl]-1-methylpyrrolidin-2-one] yielded an EC50 of 19 nM.

`NC(=O)N1CCC(C(=O)N2CC[C@@]3(S(=O)(=O)c4ccccc4)c4ccc(OCc5ccccc5)cc4CC[C@@H]23)CC1` [Example 78, 4-[(3aR,9bR)-9b-(benzenesulfonyl)-7-(benzyloxy)-1H,2H,3H,3aH,4H,5H,9bH-benzo[e]indole-3-carbonyl]piperidine-1-carboxamide] gave an EC50 of 140 nM.

Compound `O=C1CCCN1CC(=O)N1CC[C@@]2(S(=O)(=O)c3ccccc3)c3ccc(OCc4c(Cl)cccc4Cl)cc3CC[C@@H]12` [Example 79, 1-{2-[(3aR,9bR)-9b-(benzenesulfonyl)-7-[(2,6-dichlorophenyl)methoxy]-1H,2H,3H,3aH,4H,5H,9bH-benzo[e]indol-3-yl]-2-oxoethyl}pyrrolidin-2-one] registered an EC50 of 210 nM.

`O=C(N1CCOCC1)N1CC[C@@]2(S(=O)(=O)c3ccccc3)c3ccc(OCc4c(Cl)cccc4Cl)cc3CC[C@@H]12` [Example 80, 4-[(3aR,9bR)-9b-(benzenesulfonyl)-7-[(2,6-dichlorophenyl)methoxy]-1H,2H,3H,3aH,4H,5H,9bH-benzo[e]indole-3-carbonyl]morpholine] gave an EC50 of 102 nM.

`O=C(O)C12CCC(C(=O)N3CC[C@@]4(S(=O)(=O)c5ccccc5)c5ccc(OCc6c(Cl)cccc6Cl)cc5CC[C@@H]34)(CC1)CC2` [Example 81, 4-[(3aR,9bR)-9b-(benzenesulfonyl)-7-[(2,6-dichlorophenyl)methoxy]-1H,2H,3H,3aH,4H,5H,9bH-benzo[e]indole-3-carbonyl]bicyclo[2.2.2]octane-1-carboxylic acid] came in with an EC50 of 25 nM.

As for `CS(=O)(=O)C1CCN(C(=O)N2CC[C@@]3(S(=O)(=O)c4ccccc4)c4ccc(OCc5c(Cl)cccc5Cl)cc4CC[C@@H]23)CC1` [Example 82, 1-[(3aR,9bR)-9b-(benzenesulfonyl)-7-[(2,6-dichlorophenyl)methoxy]-1H,2H,3H,3aH,4H,5H,9bH-benzo[e]indole-3-carbonyl]-4-methanesulfonylpiperidine], the EC50 amounted to 97 nM.

`CC1(O)CN(C(=O)N2CC[C@@]3(S(=O)(=O)c4ccccc4)c4ccc(OCc5c(Cl)cccc5Cl)cc4CC[C@@H]23)C1` [Example 83, 1-[(3aR,9bR)-9b-(benzenesulfonyl)-7-[(2,6-dichlorophenyl)methoxy]-1H,2H,3H,3aH,4H,5H,9bH-benzo[e]indole-3-carbonyl]-3-methylazetidin-3-ol] returned a half-maximal effective concentration (EC50) of 353 nM.

On to `O=C(N1CCS(=O)(=O)CC1)N1CC[C@@]2(S(=O)(=O)c3ccccc3)c3ccc(OCc4c(Cl)cccc4Cl)cc3CC[C@@H]12` [Example 84, 4-[(3aR,9bR)-9b-(benzenesulfonyl)-7-[(2,6-dichlorophenyl)methoxy]-1H,2H,3H,3aH,4H,5H,9bH-benzo[e]indole-3-carbonyl]-1λ^6-thiomorpholine-1,1-dione], for which it took 15 nM to reach a half-maximal effect (EC50).

Turning to `CS(=O)(=O)N1CC(NC(=O)N2CC[C@@]3(S(=O)(=O)c4ccccc4)c4ccc(OCc5c(Cl)cccc5Cl)cc4CC[C@@H]23)C1` [Example 85, (3aR,9bR)-9b-(benzenesulfonyl)-7-[(2,6-dichlorophenyl)methoxy]-N-(1-methanesulfonylazetidin-3-yl)-1H,2H,3H,3aH,4H,5H,9bH-benzo[e]indole-3-carboxamide], the EC50 is 18 nM.

In turn, `CC(C)(O)CCNC(=O)N1CC[C@@]2(S(=O)(=O)c3ccccc3)c3ccc(OCc4c(Cl)cccc4Cl)cc3CC[C@@H]12` [Example 86, (3aR,9bR)-9b-(benzenesulfonyl)-7-[(2,6-dichlorophenyl)methoxy]-N-(3-hydroxy-3-methylbutyl)-1H,2H,3H,3aH,4H,5H,9bH-benzo[e]indole-3-carboxamide] had an EC50 of 159 nM.

For the compound `O=C(Nc1ccncc1)N1CC[C@@]2(S(=O)(=O)c3ccccc3)c3ccc(OCc4c(Cl)cccc4Cl)cc3CC[C@@H]12` [Example 87, (3aR,9bR)-9b-(benzenesulfonyl)-7-[(2,6-dichlorophenyl)methoxy]-N-(pyridin-4-yl)-1H,2H,3H,3aH,4H,5H,9bH-benzo[e]indole-3-carboxamide], the EC50 stood at 39 nM.

The compound `O=C(N1CC(O)C1)N1CC[C@@]2(S(=O)(=O)c3ccccc3)c3ccc(OCc4c(Cl)cccc4Cl)cc3CC[C@@H]12` [Example 88, 1-[(3aR,9bR)-9b-(benzenesulfonyl)-7-[(2,6-dichlorophenyl)methoxy]-1H,2H,3H,3aH,4H,5H,9bH-benzo[e]indole-3-carbonyl] azetidin-3-ol] displayed an EC50 of 301 nM.

As to `O=C(NC1CCOCC1)N1CC[C@@]2(S(=O)(=O)c3ccccc3)c3ccc(OCc4c(Cl)cccc4Cl)cc3CC[C@@H]12` [Example 89, (3aR,9bR)-9b-(benzenesulfonyl)-7-[(2,6-dichlorophenyl)methoxy]-N-(oxan-4-yl)-1H,2H,3H,3aH,4H,5H,9bH-benzo[e]indole-3-carboxamide], the EC50 was found to be 114 nM.

`CS(=O)(=O)N[C@@H]1CCCN(C(=O)N2CC[C@@]3(S(=O)(=O)c4ccccc4)c4ccc(OCc5c(Cl)cccc5Cl)cc4CC[C@@H]23)C1` [Example 90, N-[(3R)-1-[(3aR,9bR)-9b-(benzenesulfonyl)-7-[(2,6-dichlorophenyl)methoxy]-1H,2H,3H,3aH,4H,5H,9bH-benzo[e]indole-3-carbonyl]piperidin-3-yl]methanesulfonamide] yielded an EC50 of 712 nM.

As to `CC(C)(O)CNC(=O)N1CC[C@@]2(S(=O)(=O)c3ccccc3)c3ccc(OCc4c(Cl)cccc4Cl)cc3CC[C@@H]12` [Example 91, (3aR,9bR)-9b-(benzenesulfonyl)-7-[(2,6-dichlorophenyl)methoxy]-N-(2-hydroxy-2-methylpropyl)-1H,2H,3H,3aH,4H,5H,9bH-benzo[e]indole-3-carboxamide], the EC50 stood at 104 nM.

`CS(=O)(=O)CCNC(=O)N1CC[C@@]2(S(=O)(=O)c3ccccc3)c3ccc(OCc4c(Cl)cccc4Cl)cc3CC[C@@H]12` [Example 92, (3aR,9bR)-9b-(benzenesulfonyl)-7-[(2,6-dichlorophenyl)methoxy]-N-(2-methanesulfonylethyl)-1H,2H,3H,3aH,4H,5H,9bH-benzo[e]indole-3-carboxamide] registered an EC50 of 197 nM.
